# Values quoted from earlier work, collected in patent US11911514B2, “Extended-release pharmaceutical composition containing lacosamide” (WHAN IN Pharmaceutical Company, priority 2018, dated 2024).
# Test system: patients with epilepsy
# Details: taking 400 mg
smiles,measurement,value
COC[C@@H](NC(C)=O)C(=O)NCc1ccccc1 [lacosamide],Number of patients with seizures reduced by more than 50%,38-49%
